Counter-ions that a name gives are not always drawn. Like-named read-outs stand apart in the source and are kept apart here.
Key:
[1] = system: mechanical hyperalgesia associated with STZ-induced diabetes; experiment: STZ-induced diabetes mechanical hyperalgesia (neuropathic pain); assay type: in vivo, rat
Protocol: Streptozotocin (STZ)-induced diabetes in the rat has been increasingly used as a model of painful diabetic neuropathy to assess the efficacies of potential analgesic agents (C. Courteix, Pain 1993, 53, 81-8). The compounds of the invention were tested for efficacy in reducing mechanical hyperalgesia associated with STZ-induced diabetes in the rat, according to the experimental model as described by the literature. Diabetes was produced with the injection of a single dose (75 mg/Kg i.p.) of STZ. In the following four weeks after the induction of diabetes the clinical symptoms (weight, body and skin temperature, motility and hyperglycemia) progressively developed by the animals, are strictly monitored. After four weeks, the scores obtained in diabetic rats to various pain stimuli (in particular mechanical stimuli) were grater than those in normal rats, indicating hyperalgesia. The hyperalgesia induced by diabetes was evaluated using the Randall-Selitto method as above described, and quantitated using the analgesimeter. Also in this case, the difference in the mechanical pain threshold between the basal value (generally 230-250 g) and the one tolerated by the animals treated with the drug, is defined as mechanical hyperalgesia. The compounds of the invention were administered i.p. (solution, Tween 80, 10% in saline) at different doses, and mechanical hyperalgesia was measured at the reported time, as maximum percent effect (MPE) which represents the difference (%) in pain threshold between the animals treated with the drug and the controls that received only the vehicle, compared with the weight borne by naïf non-diabetic controls. A 100% protection means that the diabetic animals treated with the compound can tolerate the same stimulus (weight) as the naïf non-diabetic animals. MPE higher than 100% means that the diabetic animal treated with the compound can tolerate stimuli (weight) higher than the control non-diabetic animals (hypoalgesia).

[2] = system: CFA-induced hyperalgesia; experiment: CFA model of chronic inflammatory pain; assay type: in vivo, rat
[3] = system: acetic acid-induced abdominal writhes; experiment: Acetic acid-induced writhing test; assay type: in vivo, mice
Protocol: With the aim of assessing whether the compounds of the invention are able to inhibit responses to peritoneal irritation-induced visceral pain, the acetic acid-induced writhing assay was used in mice to determine the degree of anti-nociception.
The writhing test is a model of inflammatory pain that has long been used as a screening tool for evaluation of analgesic and anti-inflammatory agents (HDJ Collier, B. J. Pharmacol Chemother., 1968, 32, 295-310). The test was performed inducing nociception by an i.p. injection of acetic acid 1%, 0.1 mL/10 g of body weight. Mice were pre-treated (subcutaneously, s.c., three different doses: 3, 10, 30 mg/Kg) with the tested compounds 30 min. before acetic acid injection, while control animals received a similar volume of saline solution. A group of mice was treated with Paracetamol (200 mg/Kg, s.c.) as reference drug. The number of abdominal writhes (full extension of both hind paws) was cumulatively counted every 5 minutes over a period of 20 min. immediately after the acetic acid injection. The anti-nociceptive activity was expressed as inhibition of abdominal writhes as maximum percent effect (MPE), which represents the difference (%) in pain threshold between the animals treated with the drug and the ones that received only the vehicle.

[4] = system: formalin-induced paw licking; experiment: Formalin (licking) test; assay type: in vivo, mice; settings: for ED50: Mus musculus, ip
Protocol: The formalin test is increasingly used as a model of injury-produced pain (FV. Abbott, Pain, 1995, 60, 91-102). The procedure used for the evaluation of the compounds of the invention was similar to that reported by literature (S. Hunskaar, Pain, 1987, 30, 103-104), and consisted of the injection of 20 μl of 1% solution of formalin dissolved in distilled water, in the plantar surface of the right hind paw of the mice. Immediately, the animals were placed individually in an observation chamber. The amount of time that the animal spent licking the injected paw, considered indicative of pain, was recorded during 30 min. following formalin injection. The initial nociceptive scores normally peaked 5 min after formalin injection (early phase) and 15-30 min. after formalin injection (late phase), representing both the neurogenic and inflammatory pain responses respectively.
Animals were treated i.p. with an aqueous solution of the tested compound (doses: 3, 10, 30 mg/Kg), 1 hour before the formalin injection. Control animals received only the vehicle.
In Table 8, the analgesic effect elicited in this test by a representative compound of Formula (I), is expressed as ED50 both for the early and late phase, and compared with the performance of the standard reference, paracetamol.

[5] = system: Zymosan induced paw volume increase; experiment: Zymosan-induced paw oedema; assay type: in vivo, rat; settings: for ED50: Rattus norvegicus, read-out: Oedema Reduction ED50; for Oedema Reduction ED30: 2 hours after challenge
Protocol: (§1) The interplantar injection of Zymosan-induced mechanical hyperalgesia was used as a model of inflammatory pain (Meller, Neuropharmacology, 1994, 33, 1471-1478). In this model, typically a male Sprague-Dawley or Wistar rat (200-250 g) receives an interplantar injection of 3 mg/100 μl zymosan into one hind paw. A marked inflammation occurs in this hind paw. Drugs are administered orally for evaluation of efficacy, 30 min. before the inflammatory insult. The hyperalgesia induced by zymosan administration was evaluated using the Randall-Selitto method (Arch. Int. Pharmacodyn., 1957, 111, 409). The quantitation of the analgesic effect is achieved by an analgesimeter, which consist in applying to the inflamed paw an increasing weight (from 130-140 g up to 500 g). The difference in the mechanical pain threshold between the basal value (generally 230-250 g) and the one tolerated by the animals treated with the drug, determined 4 hours after the inflammatory challenge, is defined as mechanical hyperalgesia.
(§2) Mechanical hyperalgesia is expressed for the compounds of the invention as ED50, which is the dose of the administered compound able to increase the pain threshold by 50% in comparison with the group of control animals. The corresponding ED100, representing the dose able of reducing of 100% the pain threshold, can be calculated for those cases where there is a linear dose-response relationship. In vivo anti-inflammatory effect exerted by the compound of the invention can be assessed in the same Zymosan induced inflammation test described above, by measuring the volume of the oedema induced by the inflammatory agent. The oedema was evaluated as the increase in the volume of the Zymosan injected paw within a time of 0-2 hrs. The measurements of the variation of the oedema volume of the paw were recorded using hydroplethysmometer, which consists of two plastic cuvettes containing a surfactant liquid, the larger one being used for immersion of the paw, connected to the smaller one which contains a trans-ducer capable of recording small displacements of the volume used for the measure. The paw is immersed in the cuvettes up to the tibiotarsal joint. The volume of the liquid displaced is proportional to the extent of the inflammation. The efficacy of the compounds of the invention in preventing oedema formation is expressed as ED30, and is measured 2 hours after the inflammatory challenge, and represents the dose able of reducing of 30%, the Zymosan induced paw volume increase in comparison to control animals (animals treated with Zymosan but treated with only distilled water instead of the testing compound). The corresponding ED50, representing the dose able of reducing of 50% the zymosan induced paw volume increase, can be calculated for those cases where there is a linear dose-response relationship.
(§3) In both the experiments, for each test compound, at least three doses were used, with 10 animals per group. Compounds of the invention were tested at 10, 20 and 40 mg/Kg.

[6] = system: Zymosan-induced mechanical hyperalgesia; experiment: Zymosan-induced mechanical hyperalgesia (Randall-Selitto); assay type: in vivo, rat; settings: for ED50: Rattus norvegicus, read-out: Analgesia ED50; for Analgesia ED100: calculated from linear dose-response
Protocol: as §1, §2, §3

[7] = oral, calculated from linear dose-response
[8] = oral, 30 min before zymosan, 4 hours after challenge

CN(C)CCC=C1c2ccccc2CCc2ccccc21 [Amitriptyline, reference compound]
MPE 0.5 hrs. ([1]; 1 mg/Kg i.p.): 72%
MPE 1.5 hrs. ([1]; 1 mg/Kg i.p.): 89%
MPE 0.5 hrs. ([1]; 3 mg/Kg i.p.): 44%
MPE 1.5 hrs. ([1]; 3 mg/Kg i.p.): 40%
MPE 3 hrs. ([1]; 3 mg/Kg i.p.): 5%
MPE 0.5 hrs. ([1]; 10 mg/Kg i.p.): 68%
MPE 1.5 hrs. ([1]; 10 mg/Kg i.p.): 77%
MPE 0.5 hrs. ([1]; 30 mg/Kg i.p.): 65%
MPE 1.5 hrs. ([1]; 30 mg/Kg i.p.): 69%
MPE 3 hrs. ([1]; 30 mg/Kg i.p.): 23%

CN1C(C(=O)Nc2ccccn2)=C(O)c2ccccc2S1(=O)=O [Piroxicam, reference compound]
MPE 0.5 hrs. ([2]; 30 mg/Kg i.p.): 102%
MPE 1.5 hrs. ([2]; 30 mg/Kg i.p.): 111%
MPE 3 hrs. ([2]; 30 mg/Kg i.p.): 54%
MPE 6 hrs. ([2]; 30 mg/Kg i.p.): 24%
MPE 24 hrs. ([2]; 30 mg/Kg i.p.): 38%

CC(=O)Nc1ccc(O)cc1 [Paracetamol]
MPE (%) ([3]; 200 mg/Kg s.c.): 61%
ED50 ([4]; 1 hour before formalin, early phase, read-out: Analgesic effect ED50 (mg/Kg) Early phase): 230 mg/kg
ED50 ([4]; 1 hour before formalin, late phase, read-out: Analgesic effect ED50 (mg/Kg) Late phase): 107 mg/kg

CN1CC[C@]23c4c5ccc(O)c4O[C@H]2[C@@H](O)C=C[C@H]3[C@H]1C5 [Morphine]
ED50 ([4]; read-out: Analgesic effect ED50 (mg/Kg) Early phase): 4 mg/kg
ED50 ([4]; read-out: Analgesic effect ED50 (mg/Kg) Late phase): 4 mg/kg

COc1ccc2c(c1)c(CC(=O)O)c(C)n2C(=O)c1ccc(Cl)cc1 [Indomethacine]
Analgesic effect ED50 (mg/Kg) Late phase ([4]; i.p., 1 hour before formalin, late phase): 10 mg/kg

CC(=N)Nc1ccc2nc(-c3ccc4c(c3)CCO4)ncc2c1 [Example 4, N-[2-(2,3-dihydro-benzofuran-5-yl)quinazolin-6-yl]acetamidine dihydrochloride hemihydrate]
MPE (%) ([3]; 3 mg/Kg s.c., 30 min. before acetic acid): 18%
MPE (%) ([3]; 10 mg/Kg s.c., 30 min. before acetic acid): 41%
MPE (%) ([3]; 30 mg/Kg s.c., 30 min. before acetic acid): 36%
ED50 ([3]; Mus musculus, sc): 59.6 mg/kg
ED50 ([5]; po): 170 mg/kg
Oedema Reduction ED30 ([5]; oral): 25 mg/kg
ED50 [6]: 5.8 mg/kg
Analgesia ED100 ([6]; oral): 17 mg/kg
MPE 0.5 hrs. ([1]; 3 mg/Kg i.p.): 56%
MPE 1.5 hrs. ([1]; 3 mg/Kg i.p.): 15%
MPE 0.5 hrs. ([1]; 10 mg/Kg i.p.): 78%
MPE 1.5 hrs. ([1]; 10 mg/Kg i.p.): 24%
MPE 0.5 hrs. ([1]; 30 mg/Kg i.p.): 163%
MPE 1.5 hrs. ([1]; 30 mg/Kg i.p.): 74%
MPE 1.5 hrs. ([2]; 3 mg/Kg i.p.): 44%
MPE 0.5 hrs. ([2]; 10 mg/Kg i.p.): 47%
MPE 1.5 hrs. ([2]; 10 mg/Kg i.p.): 27%
MPE 3 hrs. ([2]; 10 mg/Kg i.p.): 25%
MPE 6 hrs. ([2]; 10 mg/Kg i.p.): 66%
MPE 24 hrs. ([2]; 10 mg/Kg i.p.): 57%
MPE 0.5 hrs. ([2]; 30 mg/Kg i.p.): 243%
MPE 1.5 hrs. ([2]; 30 mg/Kg i.p.): 270%
MPE 3 hrs. ([2]; 30 mg/Kg i.p.): 170%
MPE 6 hrs. ([2]; 30 mg/Kg i.p.): 103%
MPE 24 hrs. ([2]; 30 mg/Kg i.p.): 76%

COc1cccc(C2(O)CCCCC2CN(C)C)c1 (centres unmarked) [Tramadol, reference compound]
ED50 [6]: 25.7 mg/kg
Analgesia ED100 ([6]; oral): 405 mg/kg
MPE 0.5 hrs. ([1]; 3 mg/Kg i.p.): 26%
MPE 1.5 hrs. ([1]; 3 mg/Kg i.p.): 53%
MPE 3 hrs. ([1]; 3 mg/Kg i.p.): 7%
MPE 0.5 hrs. ([1]; 10 mg/Kg i.p.): 58%
MPE 1.5 hrs. ([1]; 10 mg/Kg i.p.): 48%
MPE 3 hrs. ([1]; 10 mg/Kg i.p.): 27%
MPE 0.5 hrs. ([1]; 30 mg/Kg i.p.): 54%
MPE 1.5 hrs. ([1]; 30 mg/Kg i.p.): 64%
MPE 3 hrs. ([1]; 30 mg/Kg i.p.): 23%
MPE 0.5 hrs. ([1]; 50 mg/Kg i.p.): 81%
MPE 1.5 hrs. ([1]; 50 mg/Kg i.p.): 60%
MPE 3 hrs. ([1]; 50 mg/Kg i.p.): 43%

CS(=O)(=O)Nc1ccc([N+](=O)[O-])cc1Oc1ccccc1 [Nimesulide, reference compound]
ED50 [5, 7]: 33.4 mg/kg
Oedema Reduction ED30 ([5]; oral): 0.5 mg/kg
ED50 [6, 8]: 7.4 mg/kg
Analgesia ED100 ([6]; oral): 161 mg/kg

Cc1ccc(-c2cc(C(F)(F)F)nn2-c2ccc(S(N)(=O)=O)cc2)cc1 [Celecoxib, reference compound]
ED50 [5, 7]: 644 mg/kg
Oedema Reduction ED30 ([5]; oral): 13.8 mg/kg
ED50 [6, 8]: 9 mg/kg
Analgesia ED100 ([6]; oral): 1172 mg/kg
